Reference: patent publication US20230338337A1, “BIOMARKERS FOR CANCER THERAPY USING MDM2 ANTAGONISTS” (OTSUKA PHARMACEUTICAL CO., LTD., priority 2019, published 2023)
Read-outs that look alike come from different tables or passages of the source.

How the values were obtained:
OCI-AML3 cells = assay: Induction of apoptosis by cleaved caspase-3 cytometry; format: cell-based; settings: 0.1 μM COMPOUND 1 with 1 μM ASTX660 and 1 ng/ml TNF-alpha, 72 h
[1] = system: SN40R2 (p53 mutated, MDM2 amplified osteosarcoma); assay: Protocol A: SRB growth inhibition assay; settings: read-out: SN40R2 IC50 (μM) (Protocol A)
SJSA-1 = assay: Protocol B: CellTiter-Glo cell viability assay
SN40R2 = assay: Protocol B: CellTiter-Glo cell viability assay; settings: read-out: SN40R2 (Protocol B) % inhibition at 10, Protocol B
[2] = system: multiple myeloma (MM) cells; settings: in vitro and ex vivo; cited from earlier work
human leukaemia models = settings: mice; by inducing MDM2 degradation; cited from earlier work
cancer cell lines = settings: cited from earlier work
tumour growth = settings: cited from earlier work

SMILES: C[C@@H]1CN(CC(=O)N2CC(C)(C)c3nc(CO)c(Cc4ccc(F)cc4)cc32)[C@@H](CN2CCOC[C@H]2C)CN1 [ASTX660, 1-{6-[(4-fluorophenyl)methyl]-5-(hydroxymethyl)-3,3-dimethyl-1H,2H,3H-pyrrolo[3,2-b]pyridin-1-yl}-2-[(2R,5R)-5-methyl-2-{[(3R)-3-methylmorpholin-4-yl]methyl}piperazin-1-yl]ethan-1-one, reference compound]
- level of apoptosis (cleaved caspase-3) (OCI-AML3 cells): sensitises the OCI-AML3 line to apoptosis induction by COMPOUND 1

SMILES: CCC(O)(c1cc(F)c2c(c1)C(=O)N(Cc1ncc(Cl)cc1O)[C@@]2(OCCO)c1ccc(Cl)cc1)c1cn(C)cn1 (stereo partly drawn) [Example 443, (3R)-2-[(5-chloro-3-hydroxypyridin-2-yl)methyl]-3-(4-chlorophenyl)-4-fluoro-6-[1-hydroxy-1-(1-methyl-1H-imidazol-4-yl)propyl]-3-(2-hydroxyethoxy)-2,3-dihydro-1H-isoindol-1-one]
- IC50 [1]: 38 µM
- IC50 (SJSA-1; Homo sapiens, SJSA-1, read-out: SJSA1 IC50 (μM) (Protocol B), Protocol B): 0.093 µM
- inhibition at 10 µM (SN40R2): 3%

SMILES: CCC(O)(c1cc(F)c2c(c1)C(=O)N(Cc1ccc(C#N)cn1)[C@@]2(O[C@H]1CCOC1)c1ccc(Cl)cc1)C1(F)CCOCC1 (stereo partly drawn) [Example 446, 6-{[(1R)-1-(4-chlorophenyl)-7-fluoro-5-[1-(4-fluorooxan-4-yl)-1-hydroxypropyl]-3-oxo-1-[(3S)-oxolan-3-yloxy]-2,3-dihydro-1H-isoindol-2-yl]methyl}pyridine-3-carbonitrile]
- IC50 [1]: 29 µM
- IC50 (SJSA-1; read-out: SJSA1 IC50 (μM) (Protocol B), Protocol B): 0.023 µM

SMILES: c1ccc2c(CCNc3ccc(Nc4ccncc4)cc3)c[nH]c2c1 [JNJ 26854165]
- activity against multiple myeloma (MM) cells [2]: potent activity

SMILES: O=C(O)C(F)(F)F.O=C1CCC(N2Cc3c(C#CCCCNC(=O)c4ccc(NC(=O)[C@@H]5NC6(CCCCC6)[C@@]6(C(=O)Nc7cc(Cl)ccc76)[C@H]5c5cccc(Cl)c5F)cc4)cccc3C2=O)C(=O)N1 (stereo partly shown) [LE-004]
- growth inhibition in human leukaemia models (human leukaemia models): efficiently inhibited growth

SMILES: CC(C)(C)C[C@@H]1N[C@@H](C(=O)N[C@H]2CC[C@H](O)CC2)[C@H](c2cccc(Cl)c2F)[C@]12C(=O)Nc1cc(Cl)ccc12 [MI-773]
- cell growth inhibition (cancer cell lines): potently inhibits cell growth

SMILES: COc1cc(C(N)=O)ccc1NC(=O)[C@@H]1N[C@@H](CC(C)(C)C)C2(C(=O)Nc3cc(Cl)ccc32)[C@H]1c1cccc(Cl)c1F (stereo partly shown) [RO-8994]
- tumour growth inhibition (tumour growth): inhibit tumour growth
